According to patent publication US11472814B2, “Thienopyranones and furanopyranones as checkpoint inhibitors and modulators of anti-tumor immunity” (SignalRx Pharmaceuticals, Inc., priority 2017, dated 2022):

Key:
[1] = test system: Bone marrow derived macrophages (BMDMs), M2 gene expression; test: M2 marker mRNA in IL4 stimulated bone marrow derived macrophages (RT PCR); format: cell-based, murine; details: 24 hours, normalized to GAPDH, control = 1
[2] = test system: Bone marrow derived macrophages (BMDMs), M2 gene expression; test: as above; format: cell-based, murine; details: for Arg mRNA expression relative to control / Fizz1 mRNA expression relative to control / Mmr mRNA expression relative to control / Ym1 mRNA expression relative to control / Mgl mRNA expression relative to control: IL4 stimulated BMDMs, 24 hours, normalized to GAPDH, control = 1
Procedure: Bone marrow derived macrophages (MOs) (BMDMs) were exposed to IL4 or LPS for 24 hours to stimulate the M2 or M1 macrophage transition in presence of Compound 1 and the known SYK inhibitor Bay-61-3606 at 1 μM conc. M2 markers Mmr, Ym1, Fizz1 and Mgl mRNA and M1 markers I11, 116 and Tnfa mRNA was quantitated by RT PCR. Values are mean±SEM (n=3-4). Expression of gene of interest is normalized to GAPDH. […] The data provide direct evidence that Compound 1 can block the immunosuppressive macrophage M2 gene expression and activate the M1 gene expression and therefore activate antitumor innate immune cell differentiation in vitro.
(§1) Relative mRNA expression of IL4 or LPS polarized genes in murine bone marrow derived macrophages (BMDMs) treated with various concentrations of inhibitors in vitro. Conclusion: Compound 3 suppressed in vitro macrophage specific immunosuppressive M2 gene expression markers and augmented macrophage stimulatory immune response M1 genes respectively.

SYK = target: T1, SYK (Homo sapiens, UniProt P43405); test: SYK inhibition IC50 (Reaction Biology Corp.); format: biochemical; details: 10-point curve; read-out: SYK IC50
T1 construct: purchased Reaction Biology Corp., Malvern, Pa; (contract assay service)
Excerpt: (§2) The inhibitory activity of a compound of the invention against PI3K and/or BRD4 and/or SYK and/or CDK4/6 can be readily determined using methods known to the skilled artisan, or by commercial vendors offering such services. […] In vivo, PI3K inhibition can be determined from target tissue biopsies by standard tissue processing to disrupt cells and then performing Western Blot analysis to determine the presence or absence of pAKT (substrate of PI3K) relative to a control sample. The activity of a compound of the invention as an inhibitor of a bromodomain-containing protein, such as a BET protein, such as BRD2, BRD3, BRD4, and/or BRDT, or an isoform or mutant thereof, may be determined in vitro, in vivo, or in a cell line. In vitro assays include assays that determine inhibition of bromodomain-containing proteins. Alternatively, inhibitor binding may be determined by running a competition experiment where a provided compound is incubated with a bromodomain-containing protein, such as a BET protein bound to known ligands, labeled or unlabeled. For example, bromodomain inhibition can be determined in vitro using Alpha Screen Technology (http://www.reactionbiologv.com/webapps/site/NewsPDFs/Bromodomain%20Assay %20Platform %20for %20Drug %20Screening %20and %20Discovery.pdf). In vivo bromodomain inhibition can be determined indirectly by evaluating the amount of protein present of proteins whose genes' transcription is influenced or controlled by the bromodomain protein, for example, the MYCN protein transcription is controlled by BRD4 (J. E. Delmore et al., Cell 2011, 146, 904-917; A. Puissant, Cancer Discov. 2013, 3, 308-323). Bromodomain inhibition may also be predicted by in silico modeling as described below in the Examples. Additionally, the company Promega offers a SYK luminescent assay to determine a compound's ability to inhibit the SYK protein (https://www.promega.com/-/media/files/resources/protocols/kinase-enzyme-appnotes/syk-kinase-assay-protocol.pdf?la=en).
Compounds of the invention were characterized for their ability to inhibit target proteins using third party vendors offering such services. PI3K alpha, gamma, and delta inhibition activity was determined by Thermo Fisher Scientific-Biosciences Life Sciences Solutions, Madison, Wis. The bromodomain protein inhibition (binding domain 1 and 2 of BRD4) as well as SYK inhibition was determined at Reaction Biology Corp., Malvern, Pa. Additional information on each of the assays performed and services provided is available at each company's website on the internet (https://www.thermofisher.com/us/en/home/life-science.html and http://www.reactionbiology.com/webapps/site, respectively). The IC50 data (shown below in Table 5) was calculated from a 10-point curve and is expressed in nanomolar concentration (nM) rounded off to the nearest whole number. Where multiple values were obtained the range from lowest to highest values is presented. NI=no inhibition detected up to 50 uM or IC50 not reached at 50 uM.

PI3K γ = target: T2, PI3K γ (Homo sapiens, UniProt P48736); test: PI3K gamma inhibition IC50 (Thermo Fisher); format: biochemical; details: 10-point curve
T2 construct: purchased Thermo Fisher Scientific-Biosciences Life Sciences Solutions, Madison, Wis; (contract assay service)
Excerpt: as §2
(§3) Compounds of the invention were characterized for their ability to inhibit target proteins using third party vendors offering such services. PI3K alpha, gamma, and delta inhibition activity was determined by Thermo Fisher Scientific-Biosciences Life Sciences Solutions, Madison, Wis. The bromodomain protein inhibition (binding domain 1 and 2 of BRD4) as well as SYK inhibition was determined at Reaction Biology Corp., Malvern, Pa. […] The IC50 data (shown below in Table 5) was calculated from a 10-point curve and is expressed in nanomolar concentration (nM) rounded off to the nearest whole number. […]

BRD4-1 = target: T3, BRD4-1 (Homo sapiens, UniProt O60885); test: Bromodomain protein inhibition IC50, binding domain 1 of BRD4 (Reaction Biology Corp.); details: 10-point curve
T3 construct: purchased Reaction Biology Corp., Malvern, Pa; (contract assay service)
Excerpt: as §2, §3

[3] = test system: Bone marrow derived macrophages (BMDMs), M1 gene expression; test: M1 marker mRNA in LPS stimulated bone marrow derived macrophages (RT PCR); format: cell-based, murine; details: for Il1 mRNA expression relative to control / Il6 mRNA expression relative to control / Tnfa mRNA expression relative to control: LPS stimulated BMDMs, 24 hours, normalized to GAPDH, control = 1
Excerpt: […] M2 markers Mmr, Ym1, Fizz1 and Mgl mRNA and M1 markers I11, 116 and Tnfa mRNA was quantitated by RT PCR. Values are mean±SEM (n=3-4). Expression of gene of interest is normalized to GAPDH. […] The data provide direct evidence that Compound 1 can block the immunosuppressive macrophage M2 gene expression and activate the M1 gene expression and therefore activate antitumor innate immune cell differentiation in vitro.
as §1

PI3K α = target: T4, PI3K α (Homo sapiens, UniProt P42336); test: PI3K alpha inhibition IC50 (Thermo Fisher); format: biochemical; details: 10-point curve
T4 construct: purchased Thermo Fisher Scientific-Biosciences Life Sciences Solutions, Madison, Wis; (contract assay service)
Excerpt: as §2, §3

BRD4-2 = target: T5, BRD4-2 (Homo sapiens, UniProt O60885); test: Bromodomain protein inhibition IC50, binding domain 2 of BRD4 (Reaction Biology Corp.); details: 10-point curve
T5 construct: purchased Reaction Biology Corp., Malvern, Pa; (contract assay service)
Excerpt: as §2, §3

T4 sequence (P42336 whole entry): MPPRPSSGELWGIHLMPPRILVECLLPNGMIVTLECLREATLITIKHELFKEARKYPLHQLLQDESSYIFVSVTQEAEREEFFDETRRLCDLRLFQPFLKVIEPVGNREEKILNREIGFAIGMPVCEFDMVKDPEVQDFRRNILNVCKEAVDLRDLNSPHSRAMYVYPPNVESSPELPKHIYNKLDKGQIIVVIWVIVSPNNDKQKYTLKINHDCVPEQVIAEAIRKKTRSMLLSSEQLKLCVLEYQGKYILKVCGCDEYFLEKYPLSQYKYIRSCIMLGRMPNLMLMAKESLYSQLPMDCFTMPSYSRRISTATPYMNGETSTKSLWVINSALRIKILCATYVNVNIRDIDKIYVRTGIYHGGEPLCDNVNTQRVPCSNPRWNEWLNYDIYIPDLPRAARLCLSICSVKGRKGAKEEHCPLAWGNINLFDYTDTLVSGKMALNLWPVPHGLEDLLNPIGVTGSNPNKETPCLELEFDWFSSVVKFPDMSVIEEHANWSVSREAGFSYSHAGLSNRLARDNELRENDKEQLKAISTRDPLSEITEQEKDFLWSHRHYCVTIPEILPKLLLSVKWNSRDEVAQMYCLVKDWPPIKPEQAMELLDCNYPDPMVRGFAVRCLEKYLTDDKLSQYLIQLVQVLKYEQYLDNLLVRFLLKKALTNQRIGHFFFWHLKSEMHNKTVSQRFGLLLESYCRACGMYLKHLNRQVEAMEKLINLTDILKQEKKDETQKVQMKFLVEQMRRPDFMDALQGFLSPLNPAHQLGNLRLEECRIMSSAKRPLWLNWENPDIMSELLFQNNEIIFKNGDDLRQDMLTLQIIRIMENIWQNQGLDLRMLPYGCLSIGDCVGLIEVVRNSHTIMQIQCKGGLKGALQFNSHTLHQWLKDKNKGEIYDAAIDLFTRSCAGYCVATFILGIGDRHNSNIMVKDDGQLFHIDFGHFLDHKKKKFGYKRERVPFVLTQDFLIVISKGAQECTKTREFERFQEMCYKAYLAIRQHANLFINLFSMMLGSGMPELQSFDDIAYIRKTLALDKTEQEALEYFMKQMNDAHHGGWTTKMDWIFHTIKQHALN
T4 sequence (P27986 whole entry partner): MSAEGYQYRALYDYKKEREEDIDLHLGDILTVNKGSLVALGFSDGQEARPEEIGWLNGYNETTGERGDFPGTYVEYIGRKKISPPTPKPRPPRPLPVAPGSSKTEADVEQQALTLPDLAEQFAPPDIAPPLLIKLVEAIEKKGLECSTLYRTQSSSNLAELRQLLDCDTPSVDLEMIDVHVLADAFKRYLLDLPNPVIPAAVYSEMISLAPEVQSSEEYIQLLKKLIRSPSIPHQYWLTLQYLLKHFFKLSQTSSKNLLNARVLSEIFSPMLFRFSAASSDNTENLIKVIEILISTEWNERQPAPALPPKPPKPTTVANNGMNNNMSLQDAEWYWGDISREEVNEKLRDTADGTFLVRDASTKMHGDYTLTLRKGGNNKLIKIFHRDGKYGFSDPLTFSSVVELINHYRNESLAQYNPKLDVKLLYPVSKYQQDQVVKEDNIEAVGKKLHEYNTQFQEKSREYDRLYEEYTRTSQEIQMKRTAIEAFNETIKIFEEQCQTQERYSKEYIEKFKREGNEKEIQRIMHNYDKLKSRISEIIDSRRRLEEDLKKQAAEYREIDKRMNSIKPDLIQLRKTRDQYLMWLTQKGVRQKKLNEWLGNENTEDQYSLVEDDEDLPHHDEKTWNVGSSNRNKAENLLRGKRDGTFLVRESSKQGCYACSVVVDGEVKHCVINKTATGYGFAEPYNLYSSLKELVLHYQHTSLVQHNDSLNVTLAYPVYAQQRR
T2 sequence (P48736 whole entry): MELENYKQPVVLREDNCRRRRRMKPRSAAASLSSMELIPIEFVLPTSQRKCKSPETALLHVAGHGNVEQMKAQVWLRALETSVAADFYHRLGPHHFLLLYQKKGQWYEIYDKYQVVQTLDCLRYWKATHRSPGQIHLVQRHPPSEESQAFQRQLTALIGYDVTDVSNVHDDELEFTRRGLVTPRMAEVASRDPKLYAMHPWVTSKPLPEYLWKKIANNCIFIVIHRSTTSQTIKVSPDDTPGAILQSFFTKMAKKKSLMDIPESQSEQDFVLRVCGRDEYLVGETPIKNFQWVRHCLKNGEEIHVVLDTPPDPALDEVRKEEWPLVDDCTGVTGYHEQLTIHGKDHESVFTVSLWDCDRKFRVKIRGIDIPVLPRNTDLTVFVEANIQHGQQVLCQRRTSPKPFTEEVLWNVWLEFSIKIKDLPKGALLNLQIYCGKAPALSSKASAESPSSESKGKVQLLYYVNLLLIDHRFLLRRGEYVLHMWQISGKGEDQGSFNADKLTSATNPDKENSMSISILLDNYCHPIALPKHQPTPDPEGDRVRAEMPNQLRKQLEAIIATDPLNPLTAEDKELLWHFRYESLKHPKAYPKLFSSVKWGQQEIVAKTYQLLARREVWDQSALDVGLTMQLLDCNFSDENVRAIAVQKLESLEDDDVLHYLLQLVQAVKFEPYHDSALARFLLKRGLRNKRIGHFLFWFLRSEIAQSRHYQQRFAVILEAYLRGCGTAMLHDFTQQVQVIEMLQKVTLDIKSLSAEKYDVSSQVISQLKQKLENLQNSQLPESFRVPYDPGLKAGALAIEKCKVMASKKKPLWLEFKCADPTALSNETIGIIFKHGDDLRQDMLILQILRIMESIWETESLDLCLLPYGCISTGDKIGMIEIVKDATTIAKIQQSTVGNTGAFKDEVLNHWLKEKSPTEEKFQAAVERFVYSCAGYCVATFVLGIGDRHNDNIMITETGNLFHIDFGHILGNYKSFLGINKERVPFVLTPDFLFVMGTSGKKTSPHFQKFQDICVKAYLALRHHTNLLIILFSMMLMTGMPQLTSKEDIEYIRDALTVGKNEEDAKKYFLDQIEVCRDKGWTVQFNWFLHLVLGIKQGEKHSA

SMILES: Cc1nn(-c2ccnc(Nc3ccc(-c4csc5c(=O)cc(N6CCOCC6)oc45)cc3)n2)cc1CN1CC(O)C1 [Compound 1, 3-[p-(4-{4-[(3-Hydroxy-1-azetidinyl)methyl]-3-methyl-1H-pyrazol-1-yl}-2-pyrimidinylamino)phenyl]-5-morpholino-4-oxa-1-thia-7-indenone]
- Mgl mRNA expression relative to control ([1]; 200 nM): 0.31
- Fizz1 mRNA expression relative to control ([1]; 2 μM): 0.22
- Arg mRNA expression relative to control ([2]; 200 nM): 0.5
- Fizz1 mRNA expression relative to control ([2]; 200 nM): 0.44
- Mmr mRNA expression relative to control ([2]; 200 nM): 0.41
- Ym1 mRNA expression relative to control ([2]; 200 nM): 0.37
- Arg mRNA expression relative to control ([2]; 500 nM): 0.45
- Fizz1 mRNA expression relative to control ([2]; 500 nM): 0.31
- Mgl mRNA expression relative to control ([2]; 500 nM): 0.41
- Mmr mRNA expression relative to control ([2]; 500 nM): 0.18
- Ym1 mRNA expression relative to control ([2]; 500 nM): 0.21
- Arg mRNA expression relative to control ([2]; 1 μM): 0.39
- Fizz1 mRNA expression relative to control ([2]; 1 μM): 0.11
- Mgl mRNA expression relative to control ([2]; 1 μM): 0.30
- Mmr mRNA expression relative to control ([2]; 1 μM): 0.19
- Ym1 mRNA expression relative to control ([2]; 1 μM): 0.10
- Arg mRNA expression relative to control ([2]; 2 μM): 0.14
- Mgl mRNA expression relative to control ([2]; 2 μM): 0.40
- Mmr mRNA expression relative to control ([2]; 2 μM): 0.14
- Ym1 mRNA expression relative to control ([2]; 2 μM): 0.11
- Arg mRNA expression relative to control ([2]; 5 μM): 0.22
- Fizz1 mRNA expression relative to control ([2]; 5 μM): 0.06
- Mgl mRNA expression relative to control ([2]; 5 μM): 0.24
- Mmr mRNA expression relative to control ([2]; 5 μM): 0.18
- Ym1 mRNA expression relative to control ([2]; 5 μM): 0.04
- immunosuppressive macrophage M2 gene expression ([2]; BMDMs, IL4 24 hours, 1 μM): blocks immunosuppressive M2 gene expression
- IC50 (SYK): < 0.1 µM
- IC50 (PI3K γ): 5 to 50 µM
- IC50 (BRD4-1): > 50 µM
- Il1 mRNA expression relative to control ([3]; 200 nM): 1.1
- Il6 mRNA expression relative to control ([3]; 200 nM): 1.7
- Tnfa mRNA expression relative to control ([3]; 200 nM): 0.88
- Il1 mRNA expression relative to control ([3]; 500 nM): 1.1
- Il6 mRNA expression relative to control ([3]; 500 nM): 1.29
- Tnfa mRNA expression relative to control ([3]; 500 nM): 1.23
- Il1 mRNA expression relative to control ([3]; 1 μM): 1.2
- Il6 mRNA expression relative to control ([3]; 1 μM): 3.15
- Tnfa mRNA expression relative to control ([3]; 1 μM): 1.70
- Il1 mRNA expression relative to control ([3]; 2 μM): 1.25
- Il6 mRNA expression relative to control ([3]; 2 μM): 1.59
- Tnfa mRNA expression relative to control ([3]; 2 μM): 1.99
- Il1 mRNA expression relative to control ([3]; 5 μM): 0.69
- Il6 mRNA expression relative to control ([3]; 5 μM): 0.97
- Tnfa mRNA expression relative to control ([3]; 5 μM): 0.90
- M1 inflammatory gene expression ([3]; BMDMs, LPS 24 hours, 1 μM): augments M1 inflammatory gene expression
- IC50 (PI3K α): 0.1 to 1 µM
- IC50 (BRD4-2): > 50 µM
